Patent US7091033B2, “Array of toxicologically relevant canine genes and uses thereof” (Phase-1 Molecular Toxicology, Inc., priority 2000, dated 2006)
Where two headings read alike, the source gives them in different places.

Legend:
Type in all cases: in vivo
[1] = system: Cytochrome P450 2B (gene expression); assay: Canine array gene expression profile of liver from dog dosed with erythromycin estolate; conditions: dog, liver, 100 mg/kg
Description: (§1) For liver or kidney, about 0.15-0.20 g of tissue was weighed and placed in a 15 ml conical tube. All tissue were kept on dry ice when other samples were being weighed.
(§2) About 3.8 ml of RLT buffer was added to the tube containing the sample. The RLT buffer® from Qiagen can be prepared beforehand by adding 10 μl betamercaptoethanol to each 1.0 ml of lysis buffer needed. The tissue was homogenized using the rotor-stator homogenizer for 45 seconds. A IKA Ultra Turrax T25 homogenizer set at speed 4 with the S25N-10G dispersing element can be used. Alternatively, a Virtishear Cyclone 750W rotor/stator homogenizer (Virtis item #278077) can be used with the 7 mm microfine sawtooth shaft and generator (195 mm long with a processing range of 0.25 ml to 20 ml, item #372718). After homogenization, samples were stored on ice until all samples were homogenized. To clean the homogenizing tip between samples, the tip was first run for a few seconds in 95% ethanol and then rinsed by squirting with fresh 95% ethanol. This process was repeated with nanopure water.
(§3) The tissue lysate was centrifuged at room temperature for 10 minutes at 3700-3800 rpm in a Beckman GS-6 (or equivalent) centrifuge to remove nuclei thus reducing DNA contamination.
(§4) The supernatant of the lysate was transferred to a clean 15 ml conical tubes containing an equal volume of 70% EtOH in DEPC treated H2O, being careful not to include any of the pellet or fatty layer and mixed. About 3.8 ml of sample was added to the RNeasy spin column placed in a 15 ml centrifuge tube and centrifuged at 3000×g (3690-3710 rpm, Beckman GS-6) for 5 min. The flow-through was discarded. The remaining sample was added to the appropriate column and spun at 3000×g for 5 minutes and the flow-through was discarded.
(§5) About 4.0 ml of Buffer RW1 (Qiagen®) was added to the column and spun as before then about 2.5 ml of buffer RPE (Qiagen®) was added to column and spun at 3000×g (3690-3710 rpm, Beckman GS-6) for 2 minutes. In this example, RPE buffer was supplied as a concentrate so 4 volumes of 95% EtOH was added before use. For the midi kit, about 220 ml of 95% EtOH would be added to 55 ml of RPE. Another 2.5 ml of buffer RPE was added and spun for 5 minutes to also dry out column. The column, including the tip, should be dry for the next elution step.
(§6) For elution, the column that has the RNA bound to a clean 15 ml tube was transferred and 200 μl of RNase-free water was added to the column, allowed to sit for 1 minute, and spun for 3 minutes at 3000×g (3690-3710 rpm, Beckman GS6). This step was repeated into the same tube but with 200 μl RNase-free water.
(§7) Liver and kidney organs were isolated from a dog which was dosed with erythromycin esolate at 100 mg/kg/day for 2 or 10 days. The dog was euthanized 16 hours after the last dosage and the organs were harvested according to standard sterile procedure. RNA was isolated from the kidney and liver as detailed in Example 1. cDNA was made from the RNA and used as probes as detailed in the Examples above.

[2] = system: Cytochrome P450 2C21 (gene expression); assay: as above; conditions: dog, liver, 100 mg/kg
Description: as §1, §2, §3, §4, §5, §6, §7

[3] = system: Cytochrome P450 2D (gene expression); assay: as above; conditions: dog, liver, 100 mg/kg
Description: as §1, §2, §3, §4, §5, §6, §7

[4] = system: canine liver gene expression; assay: as above; conditions: Canis lupus familiaris, 240 h, 10 days
Description: as §1, §2, §3, §4, §5, §6, §7

Cytochrome P450 2C21 = assay: Canine array gene expression profile of kidney from dog dosed with erythromycin estolate; conditions: dog, kidney, 100 mg/kg
Description: as §1, §2, §3, §4, §5, §6, §7

Cytochrome P450 2C41 = assay: as above; conditions: dog, kidney, 100 mg/kg
Description: as §1, §2, §3, §4, §5, §6, §7

[5] = system: Cytochrome P450 2D (gene expression); assay: as above; conditions: dog, kidney, 100 mg/kg
Description: as §1, §2, §3, §4, §5, §6, §7

[6] = system: Glutathione S-transferase alpha subunit; assay: as above; conditions: dog, kidney, 100 mg/kg
Description: as §1, §2, §3, §4, §5, §6, §7

[7] = system: canine kidney gene expression; assay: as above; conditions: Canis lupus familiaris, 240 h, 10 days
Description: as §1, §2, §3, §4, §5, §6, §7

[8] = read-out: Alkaline phosphatase fold induction
[9] = read-out: Angiopoietin-related protein 3 (ANGPTL3) fold induction
[10] = read-out: Beta-glucuronidase fold induction
[11] = read-out: Catalase fold induction
[12] = read-out: Caveolin-2 fold induction
[13] = read-out: Cubilin fold induction
[14] = read-out: Cytochrome c oxidase subunit VIIaL fold induction
[15] = read-out: c-erb B-2 fold induction

fold induction at 10 days [1]: 1.9
fold induction at 10 days [2]: 1.3
fold induction at 10 days [3]: 1.1
fold induction at 10 days (Cytochrome P450 2C21): 1.1
fold induction at 10 days (Cytochrome P450 2C41): 1.2
fold induction at 10 days [5]: 1.1
fold induction at 10 days [6]: 1.1
Compound: CCC(=O)O[C@H]1[C@H](O[C@@H]2[C@@H](C)[C@H](O[C@H]3C[C@@](C)(OC)[C@@H](O)[C@H](C)O3)[C@@H](C)C(=O)O[C@H](CC)[C@@](C)(O)[C@H](O)[C@@H](C)C(=O)[C@H](C)C[C@@]2(C)O)O[C@H](C)C[C@@H]1N(C)C [erythromycin estolate]
fold induction at 100 mg/kg [4, 8]: 1.5
fold induction at 100 mg/kg [4, 9]: 1.5
fold induction at 100 mg/kg ([4]; read-out: BR-cadherin fold induction): 1.2
fold induction at 100 mg/kg ([4]; read-out: BRCA1 fold induction): 1.5
fold induction at 100 mg/kg [4, 10]: 1.5
fold induction at 100 mg/kg ([4]; read-out: Canis familiaris mitochondrion, complete genome fold induction): 1.1
fold induction at 100 mg/kg [4, 11]: 1.4
fold induction at 100 mg/kg [4, 12]: 1.2
fold induction at 100 mg/kg [4, 13]: 1.1
fold induction at 100 mg/kg ([4]; read-out: Cytochrome c oxidase subunit II fold induction): 1.6
fold induction at 100 mg/kg [4, 14]: 1
fold induction at 100 mg/kg [4, 15]: 1.3
fold induction at 100 mg/kg [7, 8]: 1.6
fold induction at 100 mg/kg [7, 9]: 1
fold induction at 100 mg/kg ([7]; read-out: BRCA1 fold induction): 1.2
fold induction at 100 mg/kg [7, 10]: 1.1
fold induction at 100 mg/kg [7, 11]: 1.2
fold induction at 100 mg/kg ([7]; read-out: Caveolin-1 fold induction): 1
fold induction at 100 mg/kg [7, 12]: 1.6
fold induction at 100 mg/kg [7, 13]: 1.1
fold induction at 100 mg/kg [7, 14]: 1
fold induction at 100 mg/kg ([7]; read-out: Decorin fold induction): 1.1
fold induction at 100 mg/kg ([7]; read-out: FGFR2 fold induction): 1.1
fold induction at 100 mg/kg ([7]; read-out: GRP94 fold induction): 1.1
fold induction at 100 mg/kg ([7]; read-out: Gadd45 fold induction): 1
fold induction at 100 mg/kg ([7]; read-out: Glucose-regulated protein 94 #1 fold induction): 1.4
fold induction at 100 mg/kg ([7]; read-out: N-cadherin fold induction): 1.1
fold induction at 100 mg/kg ([7]; read-out: Phase-1 CCT-4 fold induction): 1.1
fold induction at 100 mg/kg ([7]; read-out: Phase-1 CCT-8 fold induction): 1.1
fold induction at 100 mg/kg ([7]; read-out: Phase-1 CCT-12 fold induction): 1.1
fold induction at 100 mg/kg ([7]; read-out: Phase-1 CCT-13 fold induction): 1
fold induction at 100 mg/kg ([7]; read-out: Phase-1 CCT-14 fold induction): 1
fold induction at 100 mg/kg ([7]; read-out: Phase-1 CCT-16 fold induction): 1
fold induction at 100 mg/kg ([7]; read-out: Phase-1 CCT-17 fold induction): 1
fold induction at 100 mg/kg ([7]; read-out: Phase-1 CCT-18 fold induction): 1.2
fold induction at 100 mg/kg ([7]; read-out: Phase-1 CCT-19 fold induction): 1.2
fold induction at 100 mg/kg ([7]; read-out: Phase-1 CCT-27 fold induction): 1.4
fold induction at 100 mg/kg ([7]; read-out: Phase-1 CCT-30 fold induction): 1.3
fold induction at 100 mg/kg ([7]; read-out: Phase-1 CCT-31 fold induction): 1.1
fold induction at 100 mg/kg ([7]; read-out: Phase-1 CCT-32 fold induction): 1.1
fold induction at 100 mg/kg ([7]; read-out: Phase-1 CCT-33 fold induction): 1.1
fold induction at 100 mg/kg ([7]; read-out: Phase-1 CCT-34 fold induction): 1.1
fold induction at 100 mg/kg ([7]; read-out: Phase-1 CCT-36 fold induction): 1
fold induction at 100 mg/kg ([7]; read-out: Phase-1 CCT-40 fold induction): 1.2
fold induction at 100 mg/kg ([7]; read-out: Phase-1 CCT-41 fold induction): 1.2
fold induction at 100 mg/kg ([7]; read-out: Phase-1 CCT-42 fold induction): 1.1
fold induction at 100 mg/kg ([7]; read-out: Phase-1 CCT-43 fold induction): 1.2
fold induction at 100 mg/kg ([7]; read-out: Phase-1 CCT-49 fold induction): 1
fold induction at 100 mg/kg ([7]; read-out: Phase-1 CCT-50 fold induction): 1.1
fold induction at 100 mg/kg ([7]; read-out: Phase-1 CCT-51 fold induction): 1.2
fold induction at 100 mg/kg ([7]; read-out: Phase-1 CCT-52 fold induction): 1.1
fold induction at 100 mg/kg ([7]; read-out: Phase-1 CCT-53 fold induction): 1
fold induction at 100 mg/kg ([7]; read-out: Phase-1 CCT-55 fold induction): 1.1
fold induction at 100 mg/kg ([7]; read-out: Phase-1 CCT-56 fold induction): 1.1
fold induction at 100 mg/kg ([7]; read-out: Phase-1 CCT-58 fold induction): 1.5
fold induction at 100 mg/kg ([7]; read-out: Phase-1 CCT-59 fold induction): 1
fold induction at 100 mg/kg ([7]; read-out: Phase-1 CCT-60 fold induction): 1.1
fold induction at 100 mg/kg ([7]; read-out: Phase-1 CCT-62 fold induction): 1.1
fold induction at 100 mg/kg ([7]; read-out: Phase-1 CCT-65 fold induction): 1.1
fold induction at 100 mg/kg ([7]; read-out: Phase-1 CCT-66 fold induction): 1.1
fold induction at 100 mg/kg ([7]; read-out: Phase-1 CCT-73 fold induction): 1.1
fold induction at 100 mg/kg ([7]; read-out: Phase-1 CCT-76 fold induction): 1
fold induction at 100 mg/kg ([7]; read-out: Phase-1 CCT-82 fold induction): 1
fold induction at 100 mg/kg ([7]; read-out: Phase-1 CCT-84 fold induction): 1.1
fold induction at 100 mg/kg ([7]; read-out: Phase-1 CCT-87 fold induction): 1.2
fold induction at 100 mg/kg ([7]; read-out: Phase-1 CCT-88 fold induction): 1.2
fold induction at 100 mg/kg ([7]; read-out: Phase-1 CCT-89 fold induction): 1.1
fold induction at 100 mg/kg ([7]; read-out: Phase-1 CCT-91 fold induction): 1.1
fold induction at 100 mg/kg ([7]; read-out: Phase-1 CCT-93 fold induction): 1
fold induction at 100 mg/kg ([7]; read-out: Proliferating cell nuclear antigen gene fold induction): 1.1
fold induction at 100 mg/kg ([7]; read-out: Prostaglandin D synthase fold induction): 1.2
fold induction at 100 mg/kg ([7]; read-out: Rab2 fold induction): 1.2
fold induction at 100 mg/kg ([7]; read-out: Rab5 fold induction): 1.1
fold induction at 100 mg/kg ([7]; read-out: Rab7 fold induction): 1.4
fold induction at 100 mg/kg ([7]; read-out: Superoxide dismutase Mn fold induction): 1.1
fold induction at 100 mg/kg ([7]; read-out: TFCOUP-related (probable steroid hormone receptor) fold induction): 1.1
fold induction at 100 mg/kg ([7]; read-out: TPRD fold induction): 1.1
fold induction at 100 mg/kg ([7]; read-out: UV excision repair protein RAD 23 (XP-C) fold induction): 1.2
fold induction at 100 mg/kg [7, 15]: 1.4
fold induction at 100 mg/kg ([7]; read-out: p53 fold induction): 1.4
fold induction at 100 mg/kg ([7]; iv, read-out: ZAP36/annexin IV fold induction): 1.6
